According to paper PMC6337671, “Simultaneous Determination of Five Phenolic Acids and Four Flavonoid Glycosides in Rat Plasma Using HPLC-MS/MS and Its Application to a Pharmacokinetic Study after a Single Intravenous Administration of Kudiezi Injection” (Molecules, 2018):
Where two headings read alike, the source gives them in different places.

Key:
[1] = system: Mas-related G protein coupled receptor X2; parameters: method as in PMID 30048896; conditions: cited from earlier work
[2] = Stability of the nine components in rat plasma QC samples (auto-sampler, freeze-thaw, long-term); format: physicochemical; conditions: n = 5; for 6 h in Auto-Sample, RE: extracted rat plasma; for Freeze-Thaw Stability (Three Cycles), RE / Long-Term Stability (−80 °C, 14 Days), RE: rat plasma
Description: The stability of the nine components in rat plasma was investigated under a variety of storage and process conditions. Table 4 summarizes the results of post-preparation (The QC samples were kept in the auto-sampler for 6 h), freeze and thaw and long-term (at −80 °C for 14 days) stability experiments.
Stability of the nine components were assessed under the condition of placing extracted plasma samples in auto-sampler for 6 h, as well as placing plasma samples within freeze-thaw three cycles and at −80 °C for 14 days. LQC, MQC and HQC samples with five replicates at each level were kept at the above conditions and analyzed against freshly prepared calibrators as the reference.

[3] = Pharmacokinetic study in rats after a single intravenous administration of concentrated Kudiezi injection (HPLC-MS/MS of plasma); format: in vivo, Sprague-Dawley rats; conditions: single i.v. 3.6 mL/kg of 15 times concentrated KI, mean ± SD; for MRT last: n = 5, read-out: MRT0-t; for MRT inf: n = 5, read-out: MRT0-∞
Description: Eight male Sprague-Dawley rats (200 ± 20 g) were obtained from Laboratory Animal Center of Fujian Medical University (Fuzhou, China). The animal studies were conducted in accordance with the Guide for the Care and Use of Laboratory Animals published by the USA National Institutes of Health (NIH Publication No. 85-23, revised 1996) and were approved by the Animal Ethic Review Committee of Fujian Medical University (Fuzhou, China). The rats were housed in rat cages (48 × 29 × 18 cm^3), in a unidirectional airflow room at a temperature of 22 ± 2 °C, a relative humidity of 40–70% and a 12 h light/dark cycle. They were fed with freely available commercial food and filtered tap water, and fasted with free access to water for 12 h before the experiments. Three of these rats were selected randomly as blank group with the above mentioned feeding conditions and without administration of drug, and after 24 h from the beginning of the experiment, their blood was collected up exhaustively from abdominal aorta to provide blank plasma for methodological validation. […] All rats were acclimated to the facilities and environment for 7 days before the experiments.
After administration, the rat tail was carefully cleaned with alcohol soaked cotton balls around the injection site to remove the residual drug. Blood was collected from the cut-tail before dosing and at the following time points: 2.5, 5, 10, 15, 20, 30, 45 min and 1, 2, 3, 4, 6, 8, 12 and 24 h after dosing. Plasma was isolated from the blood samples by centrifugation and then stored at −80 °C until analysis.
Noncompartmental pharmacokinetic parameters were calculated by DAS 3.0 software (Version DAS 3.2.8, Chinese Pharmacologic Society, Beijing, China). All the results are expressed as mean ± SD. A single-tailed Student’s t test was performed in the work.

[4] = HQC spiked 2000 ng/mL (4000 ng/mL for II)
[5] = LQC spiked 15 ng/mL (30 ng/mL for II)
[6] = MQC spiked 500 ng/mL (1000 ng/mL for II)
[7] = male, Sprague-Dawley, rat, plasma, iv, 3.6 mL/kg, n = 5
[8] = male, Sprague-Dawley, rat, plasma, iv, 3.6 mL/kg, n = 5, read-out: AUC0-t
[9] = male, Sprague-Dawley, rat, plasma, iv, 3.6 mL/kg
[10] = male, Sprague-Dawley, rat, plasma, iv, 3.6 mL/kg, n = 5, read-out: Vd

| SMILES | 6 h in Auto-Sample, RE [2, 4] [%] | 6 h in Auto-Sample, RE [2, 5] [%] | 6 h in Auto-Sample, RE [2, 6] [%] | Freeze-Thaw Stability (Three Cycles), RE [2, 4] [%] | Long-Term Stability (−80 °C, 14 Days), RE [2, 4] [%] | Freeze-Thaw Stability (Three Cycles), RE [2, 5] [%] | Long-Term Stability (−80 °C, 14 Days), RE [2, 5] [%] | Freeze-Thaw Stability (Three Cycles), RE [2, 6] [%] | Long-Term Stability (−80 °C, 14 Days), RE [2, 6] [%] | AUC(0-inf) [3, 7] [µg·h/mL] | clearance [3, 7] [L/h/kg] | half-life [3, 7] [h] | AUC(0-t) [3, 8] [µg·h/mL] | MRT last [3, 9] [h] | MRT inf [3, 9] [h] | Vd [3, 10] [L/kg] | identified as potential anaphylactoid component in KI [1] | other results |
| --- | --- | --- | --- | --- | --- | --- | --- | --- | --- | --- | --- | --- | --- | --- | --- | --- | --- | --- |
| O=C(O)[C@H]1O[C@@H](Oc2cc(O)c3c(=O)cc(-c4ccc(O)cc4)oc3c2)[C@H](O)[C@@H](O)[C@@H]1O [IX, apigenin-7-O-β-D-glucuronide] | 7.78 | −13.77 | −1.56 | 3.36 | 5.33 | −13.08 | −2.73 | 0.53 | −0.28 | 0.0561 ± 0.00849 | 10.1 | 0.07 ± 0.01 | 0.0557 ± 0.0085 | 0.09 ± 0.01 | 0.09 ± 0.01 | 1 ± 0.24 | potential anaphylactoid components |  |
| O=C(O)/C=C/c1ccc(O)c(O)c1 [Compound V, caffeic acid] | −11.88 | −18.04 | −14.10 | −7.76 | 7.83 | −13.66 | −17.21 | −2.10 | −5.99 | 0.237 ± 0.0436 | 2.08 | 6.09 ± 0.9 | 0.146 ± 0.0408 | 4.09 ± 1.36 | 9.75 ± 1.7 | 17.9 ± 1.44 |  |  |
| O=c1cc(-c2ccc(O)c(O)c2)oc2cc(O[C@@H]3O[C@H](CO[C@@H]4O[C@H](CO)[C@@H](O)[C@H](O)[C@H]4O)[C@@H](O)[C@H](O)[C@H]3O)cc(O)c12 [Compound VI, luteolin-7-O-β-D-gentiobioside] | 0.23 | −14.11 | −14.25 | 9.34 | −5.24 | −13.29 | −0.68 | −3.78 | 2.31 | 0.173 ± 0.015 | 7.66 | 0.23 ± 0.12 | 0.164 ± 0.00834 | 0.2 ± 0.08 | 0.28 ± 0.15 | 2.51 ± 1.13 |  |  |
| O=c1cc(-c2ccc(O)c(O)c2)oc2cc(O[C@@H]3O[C@H](CO)[C@@H](O)[C@H](O)[C@H]3O)cc(O)c12 [VIII, luteolin-7-O-β-D-glucoside] | 0.65 | −12.91 | −8.04 | 3.11 | 11.47 | −11.91 | −1.72 | 0.67 | 0.81 | 0.031 ± 0.00209 | 8.25 | 0.13 ± 0.02 | 0.0295 ± 0.00238 | 0.09 ± 0.02 | 0.11 ± 0.02 | 1.51 ± 0.35 | potential anaphylactoid components |  |
| O=C(/C=C/c1ccc(O)c(O)c1)O[C@@H]1C[C@](O)(C(=O)O)C[C@@H](O)[C@H]1O [I, 5-caffeoylquinic acid] | −5.26 | −15.03 | −14.93 | −2.66 | −3.42 | −16.92 | −10.71 | −8.67 | −1.12 | 0.209 ± 0.0757 | 2.99 | 2.22 ± 1.15 | 0.17 ± 0.0557 | 2.29 ± 1.65 | 3.94 ± 2.71 | 8.22 ± 2.51 |  |  |

Now from value to compound, other results behind:

| 6 h in Auto-Sample, RE [2, 4] [%] | 6 h in Auto-Sample, RE [2, 5] [%] | 6 h in Auto-Sample, RE [2, 6] [%] | Freeze-Thaw Stability (Three Cycles), RE [2, 4] [%] | Long-Term Stability (−80 °C, 14 Days), RE [2, 4] [%] | Freeze-Thaw Stability (Three Cycles), RE [2, 5] [%] | Long-Term Stability (−80 °C, 14 Days), RE [2, 5] [%] | Freeze-Thaw Stability (Three Cycles), RE [2, 6] [%] | Long-Term Stability (−80 °C, 14 Days), RE [2, 6] [%] | AUC(0-inf) [3, 7] [µg·h/mL] | clearance [3, 7] [L/h/kg] | half-life [3, 7] [h] | AUC(0-t) [3, 8] [µg·h/mL] | MRT last [3, 9] [h] | MRT inf [3, 9] [h] | Vd [3, 10] [L/kg] | SMILES | identified as potential anaphylactoid component in KI [1] | other results |
| --- | --- | --- | --- | --- | --- | --- | --- | --- | --- | --- | --- | --- | --- | --- | --- | --- | --- | --- |
| 5.65 | −7.74 | −12.46 | 9.76 | 8.01 | −10.80 | −2.91 | −1.08 | −0.26 | 0.68 ± 0.109 | 5.73 | 0.66 ± 0.2 | 0.672 ± 0.107 | 0.25 ± 0.11 | 0.3 ± 0.12 | 5.3 ± 1.21 | O=C(O)[C@H]1O[C@@H](Oc2cc(O)c3c(=O)cc(-c4ccc(O)c(O)c4)oc3c2)[C@H](O)[C@@H](O)[C@@H]1O [VII, luteolin-7-O-β-D-glucuronide] | potential anaphylactoid components |  |
| 3.63 | −12.49 | −9.25 | 3.72 | −10.05 | −17.36 | 1.30 | 2.66 | −5.34 | 3.08 ± 0.483 | 3.85 | 3.93 ± 0.47 | 2.76 ± 0.4 | 3.84 ± 1.84 | 6.25 ± 2.83 | 22.1 ± 6.21 | O=C(/C=C/c1ccc(O)c(O)c1)O[C@@H](C(=O)O)[C@@H](O)C(=O)O [II, caftaric acid] |  |  |
| 6.12 | −14.16 | −15.00 | 6.55 | 2.14 | −14.73 | −10.44 | −0.15 | −1.40 | 0.209 ± 0.054 | 1.81 | 2.92 ± 1.13 | 0.16 ± 0.0394 | 2.72 ± 1.32 | 5.07 ± 2.17 | 7.03 ± 1.29 | O=C(/C=C/c1ccc(O)c(O)c1)O[C@H]1[C@H](O)C[C@](O)(C(=O)O)C[C@H]1O [IV, 4-caffeoylquinic acid] |  |  |
| −2.78 | −7.40 | −14.11 | 2.98 | 2.07 | −18.29 | −1.71 | −5.77 | −1.20 |  |  |  |  |  |  |  | O=C(/C=C/c1ccc(O)c(O)c1)O[C@@H]1C[C@](O)(C(=O)O)C[C@@H](O)[C@H]1O [III, chlorogenic acid] |  | AUC0-∞ ([3]; rat plasma, n = 5): 0.19984 ± 0.03715 µg·h/mL; AUC(0-t) ([3]; rat plasma, n = 5): 0.15543 ± 0.02339 µg·h/mL; Cl ([3]; rat plasma, n = 5): 2.53 ± 0.43 L/h/kg; MRT0-t ([3]; rat plasma, n = 5): 3.30 ± 0.99 h; MRT0-∞ ([3]; rat plasma, n = 5): 5.93 ± 1.39 h; Vd ([3]; rat plasma, n = 5): 11.96 ± 3.10 L/kg; t1/2 ([3]; rat plasma, n = 5): 3.36 ± 0.97 h |
